Assay results published in US9475839B2, “Peptide-based inhibitor of interleukin-10 or interferon-gamma signaling” (THE UNITED STATES OF AMERICA, AS REPRESENTED BY THE …, priority 2010, dated 2016).
Where two headings read alike, the source gives them in different places. Positions of bridges follow the written chain, without caps; N, C: chain ends. Non-standard residues stand in square brackets, D forms with d. Residues, ends and D or L forms follow the SMILES beside them. Chains are numbered I, II in the order given. ξ: configuration not given here. *: point of attachment. C(fluorescein) = cysteine carrying a fluorescein label; Palmitoyl = CCCCCCCCCCCCCCCC(=O)*; PEG4 = NCCOCCOCCOCCOCCC(=O)O; Nle = CCCC[C@H](N)C(=O)O; Aib = CC(C)(N)C(=O)O; ξK = NCCCCC(N)C(=O)O

Tests used:
mouse mast MC/9 cells = assay: Inhibition of IL10-dependent growth of MC/9 cells, MTT assay, 48 hours; format: cell-based
Procedure: (§1) Cells were exposed to compounds for 48 hours and cell number was determined with the help of MTT assay.
(§2) Cells were exposed to IL10-HF-1 for 48 hours and cell number was determined with the help of MTT assay.
(§3) Peptides designed to mimic conserved regions of the receptor sequences were tested for the ability to inhibit IL10 and IFN-gamma signaling. Inhibition of IL10 signaling was tested in a mouse mast cell line MC/9. […] Abrogation of IFN-gamma signaling or STAT1 activation causes cell death in this cell line.

[1] = tested on: MDA-MB-231 breast cancer cells; assay: Inhibition of IFN-gamma-dependent growth of MDA-MB-231 cells, MTT assay, 48 hours; format: cell-based; details: 48 h
Procedure: as §1, §2, §3

[2] = molecular target: T1, recombinant human IFN-gamma (Homo sapiens, UniProt P01579); assay: Microscale thermophoresis binding to IFN-gamma; details: result in words
T1 sequence (P01579 24-161 limits assumed): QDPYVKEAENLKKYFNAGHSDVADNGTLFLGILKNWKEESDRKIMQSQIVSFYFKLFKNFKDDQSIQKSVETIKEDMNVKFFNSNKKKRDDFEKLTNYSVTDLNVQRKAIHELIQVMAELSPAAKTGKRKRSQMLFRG
Source text: To evaluate whether synthetic helix F analogs could interact with the corresponding cytokine, fluorescent derivatives of helix F were synthesized. The helix F analogs are described below.

[3] = Table 4, compounds mimicking conserved regions of IL10R1, cell line not given, read-out: GI50

CCCC[C@H](NC(=O)[C@H](Cc1ccc(O)cc1)NC(=O)[C@H](C)NC(=O)[C@H](CCC(=O)O)NC(=O)[C@@H](NC(=O)[C@H](Cc1ccc(O)cc1)NC(=O)[C@H](CC(N)=O)NC(=O)[C@@H](NC(=O)[C@H](Cc1ccccc1)NC(=O)[C@@H](NC(=O)[C@H](CC(=O)O)NC(=O)[C@H](Cc1ccccc1)NC(=O)[C@H](CCC(=O)O)NC(=O)[C@H](CO)NC(=O)C(C)(C)NC(C)=O)[C@@H](C)CC)[C@@H](C)CC)[C@@H](C)CC)C(=O)NCCOCCOCCOCCOCCC(=O)NCCCCC(NC(=O)CCOCCOCCOCCOCCNC(=O)[C@H](CCCC)NC(=O)[C@H](Cc1ccc(O)cc1)NC(=O)[C@H](C)NC(=O)[C@H](CCC(=O)O)NC(=O)[C@@H](NC(=O)[C@H](Cc1ccc(O)cc1)NC(=O)[C@H](CC(N)=O)NC(=O)[C@@H](NC(=O)[C@H](Cc1ccccc1)NC(=O)[C@@H](NC(=O)[C@H](CC(=O)O)NC(=O)[C@H](Cc1ccccc1)NC(=O)[C@H](CCC(=O)O)NC(=O)[C@H](CO)NC(=O)C(C)(C)NC(C)=O)[C@@H](C)CC)[C@@H](C)CC)[C@@H](C)CC)C(N)=O (stereo partly shown) [IL10-HF-1] (I: Ac-[Aib]SEFDIFINYIEAY[Nle][PEG4][ξK]-NH2 / II: Ac-[Aib]SEFDIFINYIEAY[Nle][PEG4]; amide I:17-II:C)
GI50 (mouse mast MC/9 cells; FIG. 2, 48 hours exposure, MTT assay, read-out: GI50, IL10 dependent growth of MC/9): 50 nM

CCCCCCCCCCCCCCCC(=O)N[C@@H](CC(C)C)C(=O)N[C@@H](Cc1ccc(O)cc1)C(=O)N[C@H](C(=O)N[C@@H](CCCNC(=N)N)C(=O)N[C@@H](CCCNC(=N)N)C(=O)N[C@@H](CCCNC(=N)N)C(=O)N[C@@H](CCCCN)C(=O)N[C@@H](CCCCN)C(=O)N[C@@H](CC(C)C)C(=O)N1CCC[C@H]1C(=O)N[C@@H](CO)C(=O)N[C@H](C(=O)N[C@@H](CC(C)C)C(=O)N[C@@H](CC(C)C)C(=O)N[C@@H](Cc1ccccc1)C(=O)N[C@@H](CCCCN)C(=O)N[C@@H](CCCCN)C(N)=O)C(C)C)C(C)C [IL10R1-1, Pal-LYVRRRKKLPSVLLFKK-NH2] (Palmitoyl-LYVRRRKKLPSVLLFKK-NH2)
GI50 (mouse mast MC/9 cells; 48 h): 1000 nM
GI50 [1]: 25 nM

CCCCCCCCCCCCCCCC(=O)NCCCC[C@H](N)C(=O)N[C@@H](CCCCN)C(=O)N[C@@H](CC(C)C)C(=O)N1CCC[C@H]1C(=O)N[C@@H](CO)C(=O)N[C@H](C(=O)N[C@@H](CC(C)C)C(=O)N[C@@H](CC(C)C)C(=O)N[C@@H](Cc1ccccc1)C(=O)N[C@@H](CCCCN)C(=O)N[C@@H](CCCCN)C(=O)N1CCC[C@H]1C(=O)N[C@@H](CO)C(N)=O)C(C)C [IL10R1-3, ε-Pal-KKLPSVLLFKKPS-NH2] (H-K(Palmitoyl)KLPSVLLFKKPS-NH2; N-terminus assumed)
GI50 (mouse mast MC/9 cells; 48 h): 50 nM
GI50 [1]: 2500 nM

CCCCCCCCCCCCCCCC(=O)N[C@@H](CC(C)C)C(=O)N[C@@H](Cc1c[nH]cn1)C(=O)NCC(=O)N[C@@H](CO)C(=O)N[C@H](C(=O)N[C@@H](CC(=O)O)C(=O)N[C@@H](CO)C(=O)NCC(=O)N[C@@H](Cc1ccccc1)C(=O)NCC(=O)N[C@@H](CO)C(=O)N[C@H](C(=O)N[C@@H](CCCCN)C(=O)N1CCC[C@H]1C(=O)N[C@@H](CO)C(=O)N[C@@H](CC(C)C)C(=O)N[C@@H](CCC(N)=O)C(=O)N[C@H](C(=O)O)[C@@H](C)O)[C@@H](C)O)[C@@H](C)O [IL10R1-5, Pal-LHGSTDSGFGSTKPSLQT] (Palmitoyl-LHGSTDSGFGSTKPSLQT-OH; N-terminus and C-terminus assumed)
GI50 (mouse mast MC/9 cells; 48 h): 1000 nM

CCCCCCCCCCCCCCCC(=O)NCCCC[C@H](N)C(=O)N[C@@H](CC(C)C)C(=O)N[C@H](C(=O)N[C@H](C(=O)N[C@@H](CC(C)C)C(=O)N1CCC[C@H]1C(=O)N[C@@H](CC(C)C)C(=O)N[C@H](C(=O)N[C@@H](CO)C(=O)N[C@@H](CO)C(=O)N[C@@H](CC(C)C)C(=O)N[C@@H](CCC(N)=O)C(=O)N[C@@H](CO)C(=O)N[C@@H](CO)C(=O)N[C@@H](CCC(=O)O)C(N)=O)[C@@H](C)CC)[C@@H](C)O)C(C)C [IL10R1-7, ε-Pal-KLVTLPLISSLQSSE-NH2] (H-K(Palmitoyl)LVTLPLISSLQSSE-NH2; N-terminus assumed)
GI50 (mouse mast MC/9 cells; 48 h): 5000 nM

CCCCCCCCCCCCCCCC(=O)NCCCC[C@H](N)C(=O)N1CCC[C@H]1C(=O)N1CCC[C@H]1C(=O)N[C@@H](C)C(=O)N[C@@H](CC(C)C)C(=O)N[C@@H](C)C(=O)N[C@@H](CCCCN)C(=O)NCC(=O)N[C@@H](Cc1ccc(O)cc1)C(=O)N[C@@H](CC(C)C)C(=O)N[C@@H](CCCCN)C(=O)N[C@@H](CCC(N)=O)C(N)=O [IL10R1-8, ε-Pal-KPPALAKGYLKQ-NH2] (H-K(Palmitoyl)PPALAKGYLKQ-NH2; N-terminus assumed)
GI50 (mouse mast MC/9 cells; 48 h): 5000 nM

CCCCCCCCCCCCCCCC(=O)NCCCC[C@@H](NC(=O)[C@@H](CC(C)C)NC(=O)[C@@H](Cc1c[nH]cn1)NC(=O)CNC(=O)[C@@H](CO)NC(=O)[C@H](NC(=O)[C@@H](CC(=O)O)NC(=O)[C@@H](CO)NC(=O)CNC(=O)[C@@H](Cc1ccccc1)NC(=O)CNC(=O)[C@@H](CO)NC(=O)[C@H](NC(=O)[C@@H](CCCCN)NC(=O)[C@H]1CCCN1C(=O)[C@@H](CO)NC(=O)[C@@H](CC(C)C)NC(=O)[C@@H](CCC(N)=O)NC(=O)[C@H](NC(=O)[C@@H](CCC(=O)O)NC(=O)[C@@H](CCC(=O)O)NC(C)=O)[C@H](C)O)[C@H](C)O)[C@H](C)O)C(N)=O [IL10R1-14] (Ac-[dE][dE][dT][dQ][dL][dS][dP][dK][dT][dS]G[dF]G[dS][dD][dT][dS]G[dH][dL][dK](Palmitoyl)-NH2; C-terminus assumed)
GI50 (mouse mast MC/9 cells; [3]): 1000 nM

CCCCCCCCCCCCCCCC(=O)NCCCC[C@@H](NC(=O)[C@@H](CC(C)C)NC(=O)[C@@H](Cc1c[nH]cn1)NC(=O)CNC(=O)[C@@H](CO)NC(=O)[C@H](NC(=O)[C@@H](CC(=O)O)NC(=O)[C@@H](CO)NC(=O)CNC(=O)[C@@H](Cc1ccccc1)NC(=O)CNC(=O)[C@@H](CO)NC(=O)[C@H](NC(=O)[C@@H](CCCCN)NC(=O)[C@H]1CCCN1C(=O)[C@@H](CO)NC(=O)[C@@H](CC(C)C)NC(=O)[C@@H](CCC(N)=O)NC(=O)[C@H](NC(=O)[C@@H](CCC(=O)O)NC(C)=O)[C@H](C)O)[C@H](C)O)[C@H](C)O)C(N)=O [IL10R1-15] (Ac-[dE][dT][dQ][dL][dS][dP][dK][dT][dS]G[dF]G[dS][dD][dT][dS]G[dH][dL][dK](Palmitoyl)-NH2; C-terminus assumed)
GI50 (mouse mast MC/9 cells; [3]): > 5000 nM

CCCCCCCCCCCCCCCC(=O)NCCCC[C@@H](N)C(=O)N[C@@H](C(=O)N[C@H](CCC(N)=O)C(=O)N[C@H](CC(C)C)C(=O)N[C@H](CO)C(=O)N1CCC[C@@H]1C(=O)N[C@H](CCCCN)C(=O)N[C@@H](C(=O)N[C@H](CO)C(=O)NCC(=O)N[C@H](Cc1ccccc1)C(=O)NCC(=O)N[C@H](CO)C(=O)N[C@H](CC(=O)O)C(=O)N[C@@H](C(=O)N[C@H](CO)C(=O)NCC(=O)N[C@H](Cc1c[nH]cn1)C(=O)N[C@H](CC(C)C)C(N)=O)[C@H](C)O)[C@H](C)O)[C@H](C)O [IL10R1-17, ε-Pal-KTQLSPKTSGFGSDTSGHL-NH2] (H-[dK](Palmitoyl)[dT][dQ][dL][dS][dP][dK][dT][dS]G[dF]G[dS][dD][dT][dS]G[dH][dL]-NH2; N-terminus assumed)
GI50 (mouse mast MC/9 cells; [3]): > 5000 nM

CCCCCCCCCCCCCCCC(=O)NCCCC[C@H](N)C(=O)N[C@@H](CC(C)C)C(=O)N[C@H](C(=O)N[C@H](C(=O)N[C@@H](CC(C)C)C(=O)N1CCC[C@H]1C(=O)N[C@@H](CC(C)C)C(=O)N[C@H](C(=O)N[C@@H](CO)C(=O)N[C@@H](CO)C(=O)N[C@@H](CC(C)C)C(=O)N[C@@H](CCC(N)=O)C(N)=O)[C@@H](C)CC)[C@@H](C)O)C(C)C [IL10R1-27, ε-Pal-KLVTLPLISSLQ-NH2] (H-K(Palmitoyl)LVTLPLISSLQ-NH2; N-terminus assumed)
GI50 (mouse mast MC/9 cells; 48 h): > 5000 nM

Ac-C(Fluo)VQRKAIHELIQVx^13AELSPAAKT-NH2 ({Ac-C(fluorescein)}-VQRKAIHELIQV[Nle]AELSPAAKT-NH2) [IFNG-HF-6]
Affinity for IFN-gamma [2]: unexpectedly high affinity
